Measured values: ChEMBL document CHEMBL3352801, “Synthesis and lipid-lowering evaluation of 3-methyl-1H-purine-2,6-dione derivatives as potent and orally available anti-obesity agents” (Eur J Med Chem, 2014)
In brackets after ≈: the same amount, converted by molar mass.

Tests used:
[1] = Cmax in Sprague-Dawley rat at 5 mg/kg, iv; format: ADME, organism-based; set-up: dose 5 mg/kg, route intravenous; conditions: in vivo
Mus musculus [2] = experiment: Toxicity in diet-induced obese C57Bl/6 mouse assessed as change in food intake at 50 mg/kg/day, po for 4 weeks administered with high-fat diet; format: organism-based; set-up: route oral; conditions: in vivo, 672 h
Mus musculus [3] = experiment: Toxicity in diet-induced obese C57Bl/6 mouse assessed as change in AST level at 50 mg/kg/day, po for 4 weeks administered with high-fat diet (reference value: 125.00 +/- 35.00 U/L); format: organism-based; set-up: route oral; conditions: in vivo, 672 h
[4] = Half life in Sprague-Dawley rat at 20 mg/kg, po; format: ADME, organism-based; set-up: dose 20 mg/kg, route oral; conditions: in vivo
Rattus norvegicus [5] = experiment: Volume of distribution in Sprague-Dawley rat at 20 mg/kg, po; format: ADME, organism-based; set-up: dose 20 mg/kg, route oral; conditions: in vivo
[6] = Total clearance in Sprague-Dawley rat at 20 mg/kg, po; format: ADME, organism-based; set-up: dose 20 mg/kg, route oral; conditions: in vivo
Mus musculus [7] = experiment: Antiobesity activity in diet-induced obese C57Bl/6 mouse assessed as reduction in hepatic triglyceride level at 50 mg/kg/day, po for 4 weeks administered with high-fat diet by Oil Red O staining-based histological method; format: functional; set-up: scale not given: the % may be the effect or the level left
Mus musculus [8] = experiment: Antiobesity activity in diet-induced obese C57Bl/6 mouse assessed as reduction in LDL level at 50 mg/kg/day, po for 4 weeks administered with high-fat diet (reference value: 0.14 +/- 0.07 mM); format: functional
Mus musculus [9] = experiment: Antiobesity activity in diet-induced obese C57Bl/6 mouse assessed as change in insulin level at 50 mg/kg/day, po for 4 weeks administered with high-fat diet (reference value: 11.85 +/- 2.6 mU); format: functional
3T3-L1 = experiment: Inhibition of triglyceride accumulation in mouse 3T3L1 cells at 10 uM after 24 hrs; format: functional; conditions: 3T3-L1, 24 h
Mus musculus [10] = experiment: Antiobesity activity in diet-induced obese C57Bl/6 mouse assessed as loss of liver weight at 50 mg/kg/day, po for 4 weeks administered with high-fat diet; format: functional
[11] = Tmax in Sprague-Dawley rat at 5 mg/kg, iv; format: ADME, organism-based; set-up: dose 5 mg/kg, route intravenous; conditions: in vivo
[12] = Volume of distribution in Sprague-Dawley rat at 5 mg/kg, iv; format: ADME, organism-based; set-up: dose 5 mg/kg, route intravenous; conditions: in vivo
[13] = Tmax in Sprague-Dawley rat at 20 mg/kg, po; format: ADME, organism-based; set-up: dose 20 mg/kg, route oral; conditions: in vivo
Mus musculus [14] = experiment: Antiobesity activity in diet-induced obese C57Bl/6 mouse assessed as reduction in triglyceride level at 50 mg/kg/day, po for 4 weeks administered with high-fat diet (reference value: 0.93 +/- 0.09 mM); format: functional
[15] = Half life in Sprague-Dawley rat at 5 mg/kg, iv; format: ADME, organism-based; set-up: dose 5 mg/kg, route intravenous; conditions: in vivo
Mus musculus [16] = experiment: Toxicity in diet-induced obese C57Bl/6 mouse assessed as change in ALT level at 50 mg/kg/day, po for 4 weeks administered with high-fat diet (reference value: 33.00 +/- 18.23 U/L); format: organism-based; set-up: route oral; conditions: in vivo, 672 h
Mus musculus [17] = experiment: Antiobesity activity in diet-induced obese C57Bl/6 mouse assessed as increase in HDL level at 50 mg/kg/day, po for 4 weeks administered with high-fat diet (reference value: 0.60 +/- 0.17 mM); format: functional
Rattus norvegicus [18] = experiment: Acute toxicity in Sprague-Dawley rat assessed as mortality at 2.5 g/kg, po as single dose measured after 7 days; format: organism-based; conditions: in vivo, 2500 mg/kg, 168 h
[19] = AUC (0 to t) in Sprague-Dawley rat at 20 mg/kg, po; format: ADME, organism-based; set-up: dose 20 mg/kg, route oral; conditions: plasma
[20] = AUC (0 to t) in Sprague-Dawley rat at 5 mg/kg, iv; format: ADME, organism-based; set-up: dose 5 mg/kg, route intravenous; conditions: plasma
[21] = Oral bioavailability in Sprague-Dawley rat at 20 mg/kg; format: ADME, organism-based; conditions: in vivo
Mus musculus [22] = experiment: Antiobesity activity in diet-induced obese C57Bl/6 mouse assessed as reduction in HOMA-IR value at 50 mg/kg/day, po for 4 weeks administered with high-fat diet (reference value: 3.06 +/- 0.85 no_unit); format: functional
Mus musculus [23] = experiment: Antiobesity activity in diet-induced obese C57Bl/6 mouse assessed as reduction in fasting blood glucose at 50 mg/kg/day, po for 4 weeks administered with high-fat diet (reference value: 5.0 +/- 1.30 mM); format: functional
Mus musculus [24] = experiment: Increase in glucose tolerance in diet-induced obese C57Bl/6 mouse assessed as rate of reducing plasma glucose at 50 mg/kg/day, po for 4 weeks by oral glucose tolerance test; format: functional
[25] = Cmax in Sprague-Dawley rat at 20 mg/kg, po; format: ADME, organism-based; set-up: dose 20 mg/kg, route oral; conditions: in vivo
Mus musculus [26] = experiment: Increase in glucose tolerance in diet-induced obese C57Bl/6 mouse assessed as time required for reducing plasma glucose to initial state at 50 mg/kg/day, po for 4 weeks by oral glucose tolerance test; format: functional
Mus musculus [27] = experiment: Antiobesity activity in diet-induced obese C57Bl/6 mouse assessed as loss of epididymal fat mass at 50 mg/kg/day, po for 4 weeks administered with high-fat diet; format: functional
Mus musculus [28] = experiment: Antiobesity activity in diet-induced obese C57Bl/6 mouse assessed as reduction in body weight at 50 mg/kg/day, po for 4 weeks administered with high-fat diet; format: functional; set-up: scale not given: the % may be the effect or the level left
[29] = Solubility of the compound at room temperature; format: physicochemical
Mus musculus [30] = experiment: Antiobesity activity in diet-induced obese C57Bl/6 mouse assessed as reduction in FFA level at 50 mg/kg/day, po for 4 weeks administered with high-fat diet (reference value: 19.55 +/- 1.57 ng/L); format: functional
Rattus norvegicus [31] = experiment: Acute toxicity in Sprague-Dawley rat assessed as clinical signs at 2.5 g/kg, po as single dose measured after 7 days; format: organism-based; conditions: in vivo, 2500 mg/kg, 168 h
Rattus norvegicus [32] = experiment: Acute toxicity in Sprague-Dawley rat assessed as change in body weight at 2.5 g/kg, po as single dose measured after 7 days; format: organism-based; conditions: in vivo, 2500 mg/kg, 168 h
[33] = Total clearance in Sprague-Dawley rat at 5 mg/kg, iv; format: ADME, organism-based; set-up: dose 5 mg/kg, route intravenous; conditions: in vivo

Question: Which Cmax [1] does the source give for CCn1c(-c2ccc(OCCN(C)c3ccccn3)cc2)nc2c1c(=O)n(Cc1ccccc1C#N)c(=O)n2C here?
Answer: 342 ng/mL

Question: And the Activity (Mus musculus [2])?
Answer: Non-toxic

Question: And the Activity (Mus musculus [3])?
Answer: 120 U/L

Question: And the half-life [4]?
Answer: 6.3 h

Question: And the Vd (Rattus norvegicus [5])?
Answer: 416.501 L/kg

Question: And the CL/F [6]?
Answer: 1030 mL/min/kg

Question: What about the Activity (Mus musculus [7]) of the same compound?
Answer: 7.17%

Question: What about the Activity (Mus musculus [8]) of the same compound?
Answer: 0.11 mM

Question: And the Activity (Mus musculus [9])?
Answer: 13.35 mU

Question: And the inhibition at 10 µM (3T3-L1)?
Answer: 64.5%

Question: And the Activity (Mus musculus [10])?
Answer: 16.8%

Question: What about the Tmax [11] of the same compound?
Answer: 4.98 min

Question: And the Vd [12]?
Answer: 142 L/kg

Question: What about the Tmax [13] of the same compound?
Answer: 2.27 h

Question: And the Activity (Mus musculus [14])?
Answer: 1.02 mM

Question: What about the half-life [15] of the same compound?
Answer: 8.83 h

Question: What about the Activity (Mus musculus [16]) of the same compound?
Answer: 20 U/L

Question: And the Activity (Mus musculus [17])?
Answer: 1.96 mM

Question: What about the Activity (Rattus norvegicus [18]) of the same compound?
Answer: Non-toxic

Question: And the AUC(0-t) [19]?
Answer: 453 ng·h/mL

Question: And the AUC(0-t) [20]?
Answer: 404 ng·h/mL

Question: And the bioavailability [21]?
Answer: 28%

Question: And the Activity (Mus musculus [22])?
Answer: 3.06

Question: What about the Activity (Mus musculus [23]) of the same compound?
Answer: 5.15 mM

Question: And the Activity (Mus musculus [24])?
Answer: >2 %/min

Question: What about the Cmax [25] of the same compound?
Answer: 54.4 ng/mL

Question: What about the Time (Mus musculus [26]) of the same compound?
Answer: >40 min

Question: What about the Activity (Mus musculus [27]) of the same compound?
Answer: 21.65%

Question: What about the Activity (Mus musculus [28]) of the same compound?
Answer: 15.96%

Question: What about the solubility [29] of the same compound?
Answer: 1000 µg/mL (≈ 1870 µM)

Question: And the Activity (Mus musculus [30])?
Answer: 22.67 ng/L

Question: What about the Activity (Rattus norvegicus [31]) of the same compound?
Answer: Non-toxic

Question: And the Activity (Rattus norvegicus [32])?
Answer: Non-toxic

Question: What about the clearance [33] of the same compound?
Answer: 189 mL/min/kg
